The source of these data is patent publication US12391677B2, “Thyroid hormone receptor agonists” (INVENTISBIO CO., LTD., priority 2018, dated 2025).

Data set [1] deals with ligand binding domain of thyroid hormone receptor alpha (Homo sapiens (Human), UniProt P10827). The experiment in a line: Thyroid hormone receptor TR-FRET binding assay (TRα LBD). Conditions: TRα LBD 4 nM. On the procedure:
(§1) TR-FRET binding assay was used to test representative compounds herein.
(§2) The ligand binding domain of thyroid hormone receptor alpha and the ligand binding domain of thyroid hormone receptor beta with GST tag were purchased from Invitrogen. Biotin-SRC2-2 coactivator peptide was purchased from Sangon Biotech, Europium anti-GST and Streptavidin-D2 was from Cisbio.
(§3) Five microliters of 4× compound serial dilution was added in the 384-well plate, white, low volume, round-bottom assay plate. […] Centrifuge the assay plates at 1000 g for 1 min and incubate 1 hr at RT, protected from light. […] Calculate EC50 by fitting % Activity values and log of compound concentrations to nonlinear regression (dose response—variable slope) with Graphpad 5.0.
On the technique in general: TR-FRET usually uses a lanthanide donor and a delayed reading to cut background.

Data set [2] can be described thus: Human hepatocyte clearance study. In kind it is in vitro ADME. Conditions: human, hepatocytes; for Human Hepatocyte Remaining Percentage @ 120 min: 2 h. On the procedure: The in vitro human hepatocyte clearance of compounds described here was studied using pooled human hepatocytes purchased from BioreclamationIVT (Westbury, NY, Cat # X008001, Lot # TQJ). The assay was conducted according to manufacturer's instruction. Briefly, 10 mM stock solutions of test compounds and positive control (Verapamil) were prepared in 100% DMSO. […] Incubation media is made of Williams E medium supplemented with 1×GlutaMax. Both thawing medium and incubation medium (serum-free) were placed in a 37° C. water bath for at least 15 minutes prior to use. […] Verapamil was use as a positive control in the assay. Vials of cryopreserved hepatocytes were removed from storage and thawed in a 37° C. water bath with gentle shaking. Contents of the vial were poured into the 50 mL thawing medium conical tube. Vials were centrifuged at 100 g for 10 minutes at room temperature. […] Hepatocyte viability and density were counted using a Trypan Blue exclusion, and then cells were diluted with serum-free incubation medium to a working cell density of 0.5×10^6 viable cells/mL. Then, a portion of the hepatocytes at 0.5×10^6 viable cells/mL was boiled for 5 minutes prior to adding to the plate as negative control to eliminate the enzymatic activity so that little or no substrate turnover should be observed. The boiled hepatocytes were used to prepare negative samples. Aliquots of 198 μL hepatocytes were dispensed into each well of a 96-well non-coated plate. The plate was placed in the incubator on an orbital shaker at 500 rpm for approximately 10 minutes. […] This assay was performed in duplicate. The plate was incubated in the incubator on an orbital shaker at 500 rpm for the designated time points. Twenty-five microliter of contents were transferred and mixed with 6 volumes (150 μL) of cold acetonitrile with IS (200 nM imipramine, 200 nM labetalol and 200 nM diclofenac) to terminate the reaction at time points of 0, 15, 30, 60, 90 and 120 minutes. […] For data analysis, all calculations were carried out using Microsoft Excel. Peak areas were determined from extracted ion chromatograms. The in vitro half-life (t1/2) of parent compound was determined by regression analysis of the percent parent disappearance vs. time curve. […] Conversion of the in vitro t1/2 (in minutes) into the scale-up unbound intrinsic clearance (scaled-up unbound CLint, in mL/min/kg) was done using the following equation (mean of duplicate determinations): Scaled-up unbound CLint=kV/N×scaling factor, where V=incubation volume (0.5 mL); N=number of hepatocytes per well (0.25×10^6 cells).

Data set [3] deals with ligand binding domain of thyroid hormone receptor beta (Homo sapiens (Human), UniProt P10828). As to the kind of experiment: Thyroid hormone receptor TR-FRET binding assay (TRβ LBD). Conditions: TRβ LBD 2 nM. The procedure: as §1, §2, §3
Data set [4] concerns the target TRβ-GAL4 binding domain chimeric receptors (Homo sapiens (Human), UniProt P10828). As to the kind of experiment: Thyroid hormone receptor cell assay (GAL4 luciferase reporter in HEK293-LUC cells). In kind it is cell-based. The text has this:
TRα-LBD or TRβ-LBD, coding sequence was inserted into pBIND expression vector (Promega, E1581) to express TRβ-GAL4 binding domain chimeric receptors. This expression vector was transfected into HEK293-LUC host cells with reporter vector (pGL4.35 which carry a stably integrated GAL4 promoter driven luciferase reporter gene). Upon agonist binding to the corresponding TRa-GAL4 or TRb-GAL4 chimeric receptor, the chimeric receptor binds to the GAL4 binding sites and stimulates the reporter gene.
Seed 2.5×10^6 HEK293-LUC cells into a 60 mm dish and incubated for 16 h at 37° C. under 5% CO2 atmosphere. Mix 12 microliters of Lipo LTX reagent in 250 microliters of Opti-MEM Medium by inversion. Mix 6 ug of DNA in 250 uL of Opti-MEM medium, then add 6 uL of Lipo PLUS Reagent. Add diluted DNA to each tube of diluted Lipo LTX Reagent (1:1 ratio), and mix by Pipettor and incubate at room temperature for 10 min. The reagent mixture was added to a 60 mm dish, incubated with cells for 4-7 h at 37 degrees under 5% CO2 atmosphere.
75 nL compound was added into 384 well assay plate using ECHO550 and then add HEK293-LUC cells (transfected, 17,000 cells/well) into the plate using phenol red-free DMEM containing 5% charcoal/dextran-treated FBS and incubated for 16-20 h at […] under 5% CO2 atmosphere. Add 25 uL of Steady-Glo Luciferase Assay Reagent into each well. Shake for 5 min and then record the luminescence value on Envision 2104 plate reader.
In general terms: Reporter assays use an easily measured gene product as a stand-in for the process of interest.

Chain of ligand binding domain of thyroid hormone receptor alpha (P10827 other isoform, or with tags, fused parts or gaps del 1-162, other chains not shown): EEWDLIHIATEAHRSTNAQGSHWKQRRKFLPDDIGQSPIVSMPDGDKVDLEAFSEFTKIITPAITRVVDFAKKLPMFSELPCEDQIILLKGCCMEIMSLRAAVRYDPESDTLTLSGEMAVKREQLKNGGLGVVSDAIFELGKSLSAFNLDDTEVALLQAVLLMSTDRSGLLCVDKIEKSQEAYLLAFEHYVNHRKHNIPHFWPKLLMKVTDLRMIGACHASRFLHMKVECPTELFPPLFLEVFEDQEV
Chain of TRβ-GAL4 binding domain chimeric receptors (P10828 217-461, stated change not applied): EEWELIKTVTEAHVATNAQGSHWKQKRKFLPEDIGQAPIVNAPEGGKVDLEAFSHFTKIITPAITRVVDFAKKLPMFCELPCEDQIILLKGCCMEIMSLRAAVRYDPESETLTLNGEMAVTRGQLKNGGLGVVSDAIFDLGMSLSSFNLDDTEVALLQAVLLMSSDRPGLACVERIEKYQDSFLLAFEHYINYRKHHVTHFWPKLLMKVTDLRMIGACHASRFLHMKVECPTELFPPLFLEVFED
Chain of ligand binding domain of thyroid hormone receptor beta (P10828 217-461): as the sequence (P10828 217-461, stated change not applied) above

As to `Cc1nn(-c2cc(Cl)c(Oc3cc(C(C)C)c(=O)[nH]n3)c(Cl)c2)c(=O)[nH]c1=O` [Compound 35], the concentration giving a half-maximal response (EC50) (usually the midpoint of the concentration-response curve) in data set [1] worked out at 2570 nM. In addition, in data set [2], the “Human In vitro Clint” value is reported as 2.21 μL/min/10^6 cells, the “Human In vitro T1/2” value worked out at 10.4 h, the “Human Scale-up Clint” value is given as 5.63 mL/min/kg and the “Human Hepatocyte Remaining Percentage @ 120 min” value turned out to be 89%.
In data set [3], `N#Cc1nn(-c2cc(Cl)c(Oc3cc(C4CC4)c(=O)[nH]n3)c(C(F)(F)F)c2)c(=O)[nH]c1=O` [Compound 65] came in with an EC50 of 150 nM. Moreover, the midpoint of the response in data set [1], the EC50, lay at 1040 nM. Also, the EC50 in data set [4] came to 4100 nM. In addition, in data set [2], the CLint scaled – broadly, the capacity of the preparation to metabolise the compound, expressed as a volume cleared per time – at 1 µM was found to be 4.53 mL/min/kg; the half-life (commonly how long it takes for the measured level to halve) at 1 µM is 13 h; the hepatocyte CLint (as a rule, a measure of how fast metabolising enzymes remove a compound, apart from limits set by blood flow) at 1 µM is 1.78 µL/min/1e6 cells. In data set [2] (1 µM), the “Human Hepatocyte Remaining Percentage @ 120 min” value is given as 94%.
